This test relates to 324938-238-R-J1-PDC complex spheroids viability. Put plainly: Anticancer human tumor 324938-238-R-J1-PDC patient-derived bladder carcinoma cell line growth inhibition [CLK]. The conditions noted are these: for viability, T/C: stronger effect = lower value; for IC50: curve of compound. From the text:
A high-throughput screen of multi-cell type tumor spheroids was designed to identify active combinations of […] and targeted small molecules. Complex spheroids include a stromal component modeled by human endothelial cells (HUVEC) and fibroblasts modeled by human mesenchymal stem cells (MSCs). The concentration ranges selected for each drug and investigational agent were based upon clinically achievable concentrations if the clinical Cmax of the agent was known.
Compounds. The drugs and investigational agents: cirtuvivint (SM08502; NSC835563), CC-671 (NSC850746), vemurafenib (NSC761431), tapotoclax (NSC804041), sotorasib (NSC818433), adagrasib (NSC831453), MRTX-1133 (NSC836407), BAY2416964 (NSC825713), copanlisib (NSC816437), inavolisib (NSC800729), abemaciclib (NSC768073), osimertinib (NSC779217), entinostat (NSC756642), eltanexor (KPT-8602, NSC794443), venetoclax (NSC766270), ceralasertib (NSC777638), bortezomib (NSC756655), olaparib (NSC753686), talazoparib (NSC767125), alisertib (NSC759677), peposertib (NSC802822), gemcitabine (NSC613327), 5-fluorouracil (NSC19893), SN-38 (NSC673596), oxaliplatin (NSC266046), paclitaxel (NSC125973), and doxorubicin (NSC123127), were obtained from the National Cancer Institute (NCI) Developmental Therapeutics Program Chemical Repository. The FDA-approved anticancer drug set is available from the Developmental Therapeutics Program at https://dtp.cancer.gov/organization/dscb/obtaining/available plates.htm. […] The stock solutions were prepared in dimethyl sulfoxide (DMSO, Sigma-Aldrich, St. Louis, MO, cat. D2650), except for the platinum complexes which were prepared in saline (Quality Biological, Gaithersburg, MD, cat. 114-055-101), at 800-fold the tested concentration and stored at -70 degrees C prior to their use. All drugs and investigational agents were tested over a range starting from a high concentration at or near the clinical Cmax and decreasing in half-log increments. If the clinical Cmax for an agent had not been determined, the highest concentration tested was 10 microM.
Cell Culture. All cells were maintained in an incubator at 37 degrees C and 5% CO2 with 95% humidity. The PDC lines were cultured according to standard operating procedures established by the NCI PDMR. Briefly, all PDCs were thawed and cultured in Matrigel-coated flasks prepared with a working solution of 1X Ham's F-12 nutrient mix, without supplementation (Invitrogen, Waltham, MA, cat. 11765054), 100 U/mL penicillin-streptomycin (Invitrogen, cat. 15140122), and 2.5% Matrigel (Corning Inc., Corning, NY, cat. 354248) for the first three passages. The 947758-054-R-J2-PDC line was cultured in 6B/Colon 1A media, which includes advanced DMEM/F-12 (Thermo Fisher Scientific, cat. 12634028), 10 mM HEPES (Thermo Fisher Scientific, cat. 15630080), 1X GlutaMAX supplement (Thermo Fisher Scientific, cat. 35050061), 0.1 mg/mL primocin (InvivoGen, cat. ant-pm-2), 10% defined fetal bovine serum, heat inactivated (HyClone Laboratories Inc., cat. SH30070.03HI), 1.25 mM N-Acetyl-L-cysteine (Sigma-Aldrich, cat. A9165), 10 mM nicotinamide (Sigma-Aldrich, cat. N0636), 1X B-27 supplement (Thermo Fisher Scientific, cat. 17504044), 1X N-2 supplement (Thermo Fisher Scientific, cat. 17502048), and 10 microM Y-27632 dihydrochloride (Tocris Bioscience, cat. 1254). The 876862-298-R-J1-PDC was cultured in 6E media, which includes all 6B/Colon 1A media components plus 50% L-WRN conditioned media (ATCC, cat. CRL-3276), 50 ng/mL recombinant human EGF recombinant protein (hEGF; Thermo Fisher Scientific, cat. PHG0311), 10 ng/mL recombinant human fibroblast growth factor 10 (hGFG-10; PeproTech, cat. 100-26), 1 ng/mL recombinant human fibroblast growth factor 2 (hFGF-2; PeproTech, cat. 100-18B), and 1 µM prostaglandin E2 (PGE2; Tocris, cat. 2296). The 227483-062-R1-J1-PDC line was cultured in Panc media, containing all 6E components except hFGF-2, with the addition of 500 nM SB-431542 (Selleckchem, cat. S1067) and 10 nM gastrin (Tocris, cat. 3006). […]

Where “and” joins values, the source holds several entries; their conditions need not be identical. Identical values can stand only once.
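Further: viability read after seven days of drug exposure.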
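Wherever viability, T/C is given: 100% = DMSO vehicle control wells.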

`C#Cc1c(F)ccc2cc(O)cc(-c3ncc4c(N5CC6CCC(C5)N6)nc(OCC56CCCN5CC(F)C6)nc4c3F)c12` (centres undefined): the concentration for half-maximal inhibition (IC50) (usually the point on the concentration scale where inhibition reaches its midpoint) was 2.92 µM and 1.47 µM. Besides, under “compound 0.0316 µM”, the viability, T/C – broadly, the ratio of treated to control – is 80% and 86.4%. Moreover, for the setting “compound 0.1 µM”, the viability, T/C was 69.2% and 79.7%. Moreover, where the note is “compound 0.316 µM”, the viability, T/C was 56.7% and 70%. In addition, where the note is “compound 1 µM”, the viability, T/C is 64.9% and 53.9%. Also, under “compound 3.16 µM”, the viability, T/C is 48.4% and 41.9%. Besides, the viability, T/C (compound 10 µM) was 41.9% and 38%.
With `C=C(F)C(=O)N1CCN(c2nc(OCC3CCCN3C)nc3c2CCN(c2cccc4cccc(Cl)c24)C3)CC1CC#N` (centres undefined), the IC50 was 2.26 µM and 3.58 µM. Further, the viability, T/C (compound 0.0316 µM) was 79.2% and 88%. The viability, T/C (compound 0.1 µM) is 88.8% and 85.7%. Further, the viability, T/C (compound 0.316 µM) was 89.3% and 88%. Besides, the viability, T/C (compound 1 µM) is 85.3% and 92.6%. The viability, T/C (compound 3.16 µM) is 35.5% and 55.8%. Besides, under “compound 10 µM”, the viability, T/C was 0.27% and 1.96%.
Turning to `C=CC(=O)N1CCN(c2nc(=O)n(-c3c(C)ccnc3C(C)C)c3nc(-c4c(O)cccc4F)c(F)cc23)C(C)C1` (centres undefined), the IC50 is > 10 µM. Moreover, for the setting “compound 0.0316 µM”, the viability, T/C is 79.1% and 96.4%. Moreover, the viability, T/C (compound 0.1 µM) was 91.3% and 85%. In addition, the viability, T/C (compound 0.316 µM) is 85.2% and 93.5%. Besides, the viability, T/C (compound 1 µM) was 102% and 99.9%. Also, the viability, T/C (compound 3.16 µM) was 105% and 99.1%. For the same compound, where the note is “compound 10 µM”, the viability, T/C is 87.9% and 86.4%.
Consider `CC(=O)O[C@H]1C(=O)[C@@]2(C)[C@H]([C@H](OC(=O)c3ccccc3)[C@]3(O)C[C@H](OC(=O)[C@H](O)[C@@H](NC(=O)c4ccccc4)c4ccccc4)C(C)=C1C3(C)C)[C@]1(OC(C)=O)CO[C@@H]1C[C@@H]2O`, for which the IC50 is < 0.0316 µM. Further, the viability, T/C (compound 0.0316 µM) was 12.8% and 11.6%. The viability, T/C (compound 0.1 µM) is 12%. The viability, T/C (compound 0.316 µM) is 11.3% and 13.4%. The viability, T/C (compound 1 µM) was 12.2% and 10.1%. For the setting “compound 3.16 µM”, the viability, T/C was 13.7% and 12.3%. Moreover, for the setting “compound 10 µM”, the viability, T/C is 15.3% and 14.2%.
Take `CC(CO)NC(=O)c1cc(-c2ccc(Cl)cc2)nn(-c2cnn(C)c2)c1=O` (centres undefined): the 50% inhibitory concentration (IC50) is 8.05 µM and 6.34 µM. For the setting “compound 0.0316 µM”, the viability, T/C is 84.8% and 86.6%. Besides, the viability, T/C (compound 0.1 µM) was 92.3% and 81.3%. Further, the viability, T/C (compound 0.316 µM) is 71.5% and 73.9%. Moreover, the viability, T/C (compound 1 µM) was 78.2% and 76.1%. The viability, T/C (compound 3.16 µM) was 60.9% and 59.9%. The viability, T/C (compound 10 µM) was 47.1% and 42.9%.
For the compound `CC(Nc1ccc2c(c1)OCCn1cc(N3C(=O)OCC3C(F)F)nc1-2)C(N)=O` (centres undefined), the IC50 was 0.091 µM and 0.128 µM. The viability, T/C (compound 0.0316 µM) was 67.9% and 69%. Besides, where the note is “compound 0.1 µM”, the viability, T/C was 49.2% and 55%. Besides, the viability, T/C (compound 0.316 µM) was 32% and 34.8%. In addition, under “compound 1 µM”, the viability, T/C is 25% and 29.9%. For the same compound, the viability, T/C (compound 3.16 µM) is 20.4% and 24.6%. Moreover, under “compound 10 µM”, the viability, T/C is 10.8% and 12.4%.
Turning to `CC1(C)CCC(CN2CCN(c3ccc(C(=O)NS(=O)(=O)c4ccc(NCC5CCOCC5)c([N+](=O)[O-])c4)c(Oc4cnc5[nH]ccc5c4)c3)CC2)=C(c2ccc(Cl)cc2)C1`, the IC50 is 8.81 µM and 4.58 µM. Further, for the setting “compound 0.0316 µM”, the viability, T/C was 85.9% and 77.8%. For the same compound, the viability, T/C (compound 0.1 µM) was 79.9% and 82.2%. The viability, T/C (compound 0.316 µM) is 84.2% and 75.7%. For the setting “compound 1 µM”, the viability, T/C was 82% and 77.7%. Besides, for the setting “compound 3.16 µM”, the viability, T/C is 77.1% and 68.8%. Also, the viability, T/C (compound 10 µM) was 46.6% and 10.4%.

For the origin of these results see PubChem BioAssay AID2060621 (Molecular Pharmacology Branch, DTP, NCI, 2025).
